Experimental data from patent US6794544B2, “Method for the preparation of tetrahydrobenzothiepines” (Pharmacia Corporation, priority 2000, dated 2004).

Experiment: Water uptake experiments (Dynamic Vapor Sorption, water sorption/desorption isotherms)
Assay type: physicochemical
Description: A dry sample of the crystalline form having a melting point or a decomposition point of about 278° C. to about 285° C. (i.e., Form 11) typically gains less than about 1% of its own weight when equilibrated under 80% relative humidity (RH) air at 25° C. […] For the present purposes, the term “essentially 0% RH” means less than about 1% RH. The term “equilibrated” means that the change in weight of a sample over time at a given relative humidity is less than 0.0003% ((dm/dt)/m0×100, where m is mass in mg, m0 is initial mass, and t is time in minutes).
Water sorption experiments are performed on a Dynamic Vapor Sorption (DVS) apparatus (DVS-1000 manufactured by Surface Measurements Systems, Inc.). Experiments are performed at 25° C. by initially drying the material of interest (about 10 mg sample) from 30% relative humidity (RH) (ambient room condition) to about 9% RH in a stepwise fashion (10% RH step) by purging with dry nitrogen until no further weight change was observed. The samples are then exposed to a stepwise (10% RH steps) increase in RH from about 0 to about 90% RH. Each successive step is initiated when the change in weight over time at the relative humidity was less than 0.0003% ((dm/dt)/m0×100, where m is mass in mg, m0 is initial mass, and t is time in minutes). […] The data are collected on a computer and analyzed using SMS′ proprietary MS-Excel macro interface software.

CCCCC1(CCCC)CS(=O)(=O)c2ccc(N(C)C)cc2[C@@H](c2ccc(OCc3ccc(C[N+]45CCN(CC4)CC5)cc3)cc2)[C@H]1O [Form II, (4R,5R)-1-((4-(4-(3,3-dibutyl-7-(dimethylamino)-2,3,4,5-tetrahydro-4-hydroxy-1,1-dioxido-1-benzithiepin-5-yl)phenoxy)methyl)phenyl)methyl-4-aza-1-azoniabicyclo[2.2.2]octane chloride]
weight gain of the sample (of its own weight) (dried at essentially 0% RH at about 25° C. under dry nitrogen, then equilibrated under about 80% RH air at about 25° C.): less than 1% | hygroscopicity (dry sample equilibrated under 80% RH air at 25° C.): essentially nonhygroscopic
